These are literature values, as cited in PubChem BioAssay AID1259410 (Chemical Carcinogenesis Research Information System (CCRIS), 2018).

The test system of this data set is rodent tumor promotion studies, tumor incidence. Description: CCRIS tumor promotion studies.

On to `CCO`, for which the outcome (Carcinogen: N-METHYL-N'-NITRO-N-NITROSOGUANIDINE, 70-25-7, Doses [Carcinogen]: 50 UG/ML IN DRINKING WATER FOR 20 WK, Doses [Promoter]: 0, 2.5 ML/KG BW OF 20% AGENT IN 0.9% SALINE SOLUTION 1/2D BEGINNING 1 WK POST LAST CARCINOGEN DOSE AND CONTINUING FOR DU, Route [Carcinogen]: ORAL, Route [Promoter]: INTRAPERITONEAL, Species: RAT, Strain/Sex: WISTAR/MALE) is given as “stomach: adenocarcinoma”; the outcome (Carcinogen: N-METHYL-N-NITROSOUREA, 684-93-5, Doses [Carcinogen]: 30 MG/KG BW ONCE AT 50 D OF AGE, Doses [Promoter]: 0, 15% OF CALORIES IN DIET FOR 4 WK BEGINNING 3 WK PRIOR TO CARCINOGEN DOSE (STUDY DURATION: 25 WK), Route [Carcinogen]: INTRAPERITONEAL, Route [Promoter]: ORAL, Species: RAT, Strain/Sex: SPRAGUE-DAWLEY/FEMALE) was “mammary gland: adenocarcinoma”; the outcome (Carcinogen: N-METHYL-N-NITROSOUREA, 684-93-5, Doses [Carcinogen]: 30 MG/KG BW ONCE AT 51 D OF AGE, Doses [Promoter]: 0, 15%, 20% OF CALORIES IN DIET BEGINNING 1 WK POST CARCINOGEN DOSE AND CONTINUING FOR DURATION OF STUDY (STUDY DURATION, Doses [Promoter]: 0, 15%, 20% OF CALORIES IN DIET BEGINNING 1 WK POST CARCINOGEN DOSE AND CONTINUING FOR DURATION OF STUDY (STUDY DURATION, Route [Carcinogen]: INTRAPERITONEAL, Route [Promoter]: ORAL, Species: RAT, Strain/Sex: SPRAGUE-DAWLEY/FEMALE) was “mammary gland: adenocarcinoma”; the outcome (Carcinogen: N-NITROSODIMETHYLAMINE, 62-75-9, Doses [Carcinogen]: 1 PPM IN DRINKING WATER FOR 48 OR 72 WK, Doses [Promoter]: 0, 10% IN DRINKING WATER FOR 48 OR 72 WK (STUDY DURATION: 72 WK), Route [Carcinogen]: ORAL, Route [Promoter]: ORAL, Species: MOUSE, Strain/Sex: STRAIN-A/MALE) is “lung: tumor”; the outcome (Carcinogen: N-NITROSODIMETHYLAMINE, 62-75-9, Doses [Carcinogen]: 5 MG/KG ONCE, Doses [Promoter]: 0, 5, 10, 20% SOLUTION ADMINISTERED WITH CARCINOGEN DOSE (STUDY DURATION: 16 WK), Doses [Promoter]: 0, 5, 10, 20% SOLUTION ADMINISTERED WITH CARCINOGEN DOSE (STUDY DURATION: 16 WK), Route [Carcinogen]: GAVAGE, Route [Promoter]: GAVAGE, Species: MOUSE, Strain/Sex: STRAIN-A/MALE) is on record as “lung: tumor”; the outcome (Carcinogen: N-NITROSODIMETHYLAMINE, 62-75-9, Doses [Carcinogen]: 5 PPM IN DRINKING WATER FOR 4 WK, Doses [Promoter]: 0, 1, 5, 10% IN DRINKING WATER FOR 4 WK (STUDY DURATION: 16 WK), Doses [Promoter]: 0, 1, 5, 10% IN DRINKING WATER FOR 4 WK (STUDY DURATION: 16 WK), Route [Carcinogen]: ORAL, Route [Promoter]: ORAL, Species: MOUSE, Strain/Sex: STRAIN-A/MALE) is recorded as “lung: tumor”. Further, the outcome is listed as “esophagus: tumor” (Carcinogen: N-NITROSOMETHYLBENZYLAMINE, 937-40-6, Doses [Carcinogen]: 0.2 MG/KG BW IN CORN OIL 3/WK FOR 3 WK, Doses [Promoter]: 0, 30% OF TOTAL CALORIES BEGINNING POST CARCINOGEN TREATMENT AND CONTINUING FOR DURATION OF STUDY (STUDY DURATION: 23 WK, Route [Carcinogen]: GAVAGE, Route [Promoter]: ORAL, Species: MOUSE, Strain/Sex: C57BL/FEMALE); “esophagus: tumor” (Carcinogen: N-NITROSOMETHYLBENZYLAMINE, 937-40-6, Doses [Carcinogen]: 0.2 MG/KG IN CORN OIL 3/WK FOR 3 WK, Doses [Promoter]: SUBSTITUTED FOR MALTOSE DEXTRIN IN DIET TO PROVIDE 30% OF TOTAL DIETARY CALORIES BEGINNING POST CARCINOGEN TREATMENT AND, Route [Carcinogen]: GAVAGE, Route [Promoter]: ORAL, Species: MOUSE, Strain/Sex: C57BL/FEMALE); “esophagus: papilloma” (Carcinogen: N-NITROSOMETHYLBENZYLAMINE, 937-40-6, Doses [Carcinogen]: 2.5 MG/KG 3/WK FOR 3 WK, Doses [Promoter]: 1-2% IN LIQUID DIET ON DAY 1 AND INCREASING TO 7% BY DAY 8 OF AGENT TREATMENT BEGINNING 1 WK POST LAST CARCINOGEN DOSE F, Route [Carcinogen]: INTRAPERITONEAL, Route [Promoter]: ORAL, Species: RAT, Strain/Sex: SPRAGUE-DAWLEY/MALE); “lung: tumor” (Carcinogen: N-NITROSOPYRROLIDINE, 930-55-2, Doses [Carcinogen]: 6.8 PPM IN DRINKING WATER FOR 4 WK, Doses [Promoter]: 0, 10% IN STERILIZED DISTILLED DRINKING WATER ADMINISTERED WITH CARCINOGEN FOR 4 WK (STUDY DURATION: 36 WK), Route [Carcinogen]: ORAL, Route [Promoter]: ORAL, Species: MOUSE, Strain/Sex: STRAIN-A/MALE); “lung: tumor” (Carcinogen: N-NITROSOPYRROLIDINE, 930-55-2, Doses [Carcinogen]: 40 PPM IN DRINKING WATER FOR 4 WK, Doses [Promoter]: 0, 10% IN STERILIZED DISTILLED DRINKING WATER ADMINISTERED WITH CARCINOGEN FOR 4 WK (STUDY DURATION: 36 WK), Route [Carcinogen]: ORAL, Route [Promoter]: ORAL, Species: MOUSE, Strain/Sex: STRAIN-A/MALE); “lung: tumor; forestomach: carcinoma” (Carcinogen: NITROSODIETHYLAMINE, 55-18-5, Doses [Carcinogen]: 6.8 PPM IN DRINKING WATER FOR 4 WK, Doses [Promoter]: 0, 10% IN STERILIZED DISTILLED DRINKING WATER ADMINISTERED WITH CARCINOGEN FOR 4 WK (STUDY DURATION: 36 WK), Route [Carcinogen]: ORAL, Route [Promoter]: ORAL, Species: MOUSE, Strain/Sex: STRAIN-A/MALE). Also, the outcome (Doses [Carcinogen]: 1.5 MG/KG IN DMSO 2/WK FOR 10 WK (TOTAL DOSE: 30 MG/KG), Doses [Promoter]: 10% IN DRINKING WATER FOR 56 WK ADMINISTERED 1 WK POST CARCINOGEN DOSES (STUDY DURATION: 57 WK), Route [Carcinogen]: INTRAPERITONEAL, Route [Promoter]: ORAL, Species: RAT, Strain/Sex: ACI/N/MALE) is on record as “liver: hepatocellular carcinoma, neoplastic nodule”.
